# Reference: patent US20100105758A1 (Centre de Recherche Public de la Sante, priority 2006, published 2010)
# What was measured:
# THP-1 monocytes = test: Migration assay, modified Boyden chamber coated with gelatin B, MCP-1 gradient; assay type: cell-based; conditions: 10 μM Ado and 10 μM EHNA for 24 hours, MCP-1 10 ng/mL, migration after 24 hours
# Protocol: Infiltration of monocytes/macrophages into the myocardium is a hallmark of ventricular remodelling post MI. Cell migration is facilitated by degradation of the ECM by MMP-9. We therefore tested whether the increase in MMP-9 secretion by Ado could improve monocytes migration along a gradient of MCP-1. For this purpose, the top of a modified Boyden chamber was coated with gelatin B and MCP-1 was added in the bottom compartment. Monocytes were treated with Ado before seeding on the microporous membrane of the chamber. […] This effect was inhibited by the synthetic MMP inhibitor GM6001 and the endogenous MMP-9 inhibitor TIMP-1 (FIG. 4).
# FIG. 4. Ado increases monocytes migratory capacity. THP-1 monocytes were treated for 24 hours with 10 μM Ado and 10 μM EHNA or vehicle before seeding on the microporous membrane of a modified Boyden chamber pre-coated with gelatin B. 10 ng/mL MCP-1 was added in the bottom compartment. When specified, cells were pre-incubated with TIMP-1 (10 ng/mL) or GM6001 (10 nM or 1 μM) before seeding on the membrane. Cell migration was quantified by fluorescence after 24 hours. […] Results are mean±SD (n=5). * P<0.05 vs no Ado.
# Migration assay. Migratory capacity of THP-1 monocytes was studied using a Transwell® system with polycarbonate microporous membranes (5 μm pore size, 24-well chamber, Costar, Lowell, USA). Membranes were coated with a 2% gelatin B solution and allowed to dry at room temperature for 2 hours. MCP-1 (10 ng/mL) was added in the bottom compartment. THP-1 monocytes were cultured in serum- and antibiotic-free medium with or without 10 μM Ado and 10 μM EHNA for 24 hours. Cells were pre-incubated for 30 min with GM 6001 (10 nM or 1 μM) or TIMP-1 (10 ng/mL) before seeding into the upper compartment at a concentration of 7.5×10^4 cells per well. After 24 hours, cells that migrated through the membrane were detached, lysed and stained by the CyQuant GR® dye (Invitrogen) for 15 min. Fluorescence was read with a POLARstar Optima (BMG LABTECH, Champigny-sur-Marne, France) microplate reader (Xex=492 nm, kem=520 nm).
# [1] = system: THP-1-derived macrophages; test: Ado receptor mRNA expression in THP-1-derived macrophages, quantitative PCR; assay type: cell-based; conditions: 10 μM Ado and 10 μM EHNA, PMA 48 hours
# Protocol: FIG. 3. […] A. THP-1 cells were treated for 15 min with 10 μM Ado and 10 μM EHNA or vehicle before differentiation to macrophages with 150 nM PMA for 48 hours. […] B. THP-1 cells were treated for 15 min with 0.1, 1 or 10 μM of Ado receptors agonists (CPA, A1-specific; CGS21680, A2a-specific; IB-MECA, A3-specific). […] Gelatinase activity was assessed in conditioned medium. […] C. […] Cells were transfected with siRNA specific for A2a, A2b or A3 Ado receptors, incubated for 48 hours to achieve down-regulation of Ado receptors expression, treated for 15 min with 10 μM Ado and 10 μM EHNA or vehicle before differentiation to macrophages with 150 nM PMA for 48 hours. Conditioned medium was analysed by gelatin zymography.
# Cell culture. All cell culture reagents were from Lonza (Verviers, Belgium) unless specified otherwise. Peripheral venous blood was obtained from healthy volunteers. Peripheral blood mononuclear cells were obtained by Ficoll gradient. Monocytes were purified by negative selection using the Monocyte Isolation Kit II (Myltenyi Biotec GmbH, Bergisch Gladbach, Germany). […] Macrophages were incubated for 15 minutes with Ado/EHNA (10 μmol/L) or vehicle, then LPS (100 ng/ml) or vehicle was added and cells were incubated for another 24 hours before harvesting. […]
# Real time quantitative PCR.
# neutrophils = conditions: through A2a receptor; cited from earlier work
# [2] = system: primary human macrophages; test: MMP-9 secretion by primary macrophages, ELISA in conditioned medium; assay type: cell-based; conditions: Ado and EHNA 10 μmol/L each, 15 min then 24 hours, with or without LPS 100 ng/ml
# Protocol: FIG. 1. […] Cell culture. All cell culture reagents were from Lonza (Verviers, Belgium) unless specified otherwise. Peripheral venous blood was obtained from healthy volunteers. Peripheral blood mononuclear cells were obtained by Ficoll gradient. Monocytes were purified by negative selection using the Monocyte Isolation Kit II (Myltenyi Biotec GmbH, Bergisch Gladbach, Germany). […] Macrophages were incubated for 15 minutes with Ado/EHNA (10 μmol/L) or vehicle, then LPS (100 ng/ml) or vehicle was added and cells were incubated for another 24 hours before harvesting. Cells from the monocyte-like line THP-1 (ATCC, LGC Promochem, Teddington, UK) were propagated at 37° C.-5% CO2 in RPMI 1640 medium supplemented with L-glutamine (2 mM), Penicillin (100 Units/ml), Streptomycin (100 μg/ml), non-essential amino acids solution (1 μM), sodium pyruvate (1 mM), and 10% heat-inactivated fetal calf serum (FCS) (Eurobio, Les Ulys, France). For experiments, FCS in culture medium was reduced to 1%. Cells were treated for 15 min with EHNA vehicle (DMSO), Ado (0.01 to 100 μM), Ado receptors agonists (0.1 to 10 μM), EHNA (10 μM) or Dipyridamole (DIP) (10 μM). Cells were then differentiated into macrophages with 150 nM phorbol myristate actetate (PMA) for 24 hours. Macrophages were subsequently treated with LPS (1 to 1000 ng/ml), fMLP (10^−7 M) or H2O2 (10 mM) for another 24 hours. […] ELISA.
smiles,measurement,setting,value
Nc1ncnc2c1ncn2[C@@H]1O[C@H](CO)[C@@H](O)[C@H]1O [adenosine],cell migration through the gelatin layer,THP-1 monocytes,enhanced cell migration
same,A2b receptor expression (mRNA),[1],more than two-fold increase
same,A3 receptor expression (mRNA),[1],more than two-fold increase
same,MMP-9 secretion by neutrophils,neutrophils,inhibits MMP-9 secretion
same,MMP-9 secretion in cell supernatant as measured by ELISA,[2],mild but significant increase
same,MMP-9 secretion in cell supernatant as measured by ELISA,[2]; listed as Ado,significantly increased
